Data published in patent publication US8992945B2, “Supramacromolecular polymer complexes providing controlled nitric oxide release for healing wounds” (University of Toronto, priority 2007, dated 2015).

How the values were obtained:
[1] = Kinetics of NO decomposition from RSNOs in aqueous medium (UV-Vis absorbance at 545 nm); assay type: physicochemical; details: for NO decomposition rate (order of decay slopes): 0.1 N HCl, 22° C., similar initial solution concentrations, FIG. 5
Procedure: In this invention, GSHEE and phytochelatin are being used for the first time as NO donors. […] Their stability in aqueous medium was explored using the UV-Vis Spectrophotometer. Solutions of all RSNOs for this stability study were synthesized according to Example 1. Their decomposition kinetics in these solutions at room temperature was obtained from the time dependent absorbance changes at 545 nm in time intervals of 10 min.
A good linearity is obtained for all three curves, from the decay slopes, it can be seen that NO decomposition rate decreases in the order of GSNO>S-Nitroso-GSHEE>S-nitroso-PC5.

[2] = NO endogenously synthesized by vascular endothelial cells; cited from earlier work

| NO decomposition rate (order of decay slopes) [1] | NO dissociation from GSNO ([1]; acidic and neutral medium, room condition (22° C.), FIG. 1) | SMILES | biological half life [2] |
| --- | --- | --- | --- |
| GSNO>S-Nitroso-GSHEE>S-nitroso-PC5 | continuously dissociates | N[C@@H](CCC(=O)N[C@@H](CSN=O)C(=O)NCC(=O)O)C(=O)O [GSNO, S-nitrosoglutathione] | – |
| – | – | [N]=O [NO, nitric oxide] | ≤ 5 sec |
| GSNO>S-Nitroso-GSHEE>S-nitroso-PC5 | – | CCOC(=O)CNC(=O)C(CSN=O)NC(=O)CCC(N)C(=O)O (stereo not shown) [S-Nitroso-GSHEE] | – |
